Tests used:
[1] = molecular target: anti-maltose antibody; assay: Conventional SPR affinity assay, maltose on immobilized anti-maltose antibody; format: binding; conditions: 12 injections 0 to 1500 μM, 25° C.
Method: In order to compare the results obtained with pulse injections to results obtained with the conventional method, 12 maltose injections of concentrations ranging from 0 to 1500 μM were performed. The injection time was 15 sec. Data was evaluated from a Req versus C plot using the BIAevaluation software.

[2] = molecular target: anti-maltose antibody; assay: Pulse injection SPR steady state affinity, maltose on immobilized anti-maltose antibody; conditions: read-out: average KD; pulse injection method, 25° C., initial concentrations 0.05 and 0.1 mM
Method: Roughly the same amount of another antibody, anti-AFP, was immobilized in a reference flowcell in order to minimise errors in reference subtraction due to the high immobilization level. These two proteins were immobilized using the “amine coupling” procedure as follows: HBS-EP was used as running buffer with a constant flow rate of 5 μl/min. After activation for 12 min. with EDC, target (anti-maltose or anti-AFP, 50 μg/ml in 10 mM sodium acetate, pH 5.0) was injected for 7 min., followed by a 12-min. deactivation. Immobilization and all measurements on the surface were performed at 25° C.
Samples of different initial concentrations (0.05 and 0.1 mM) were injected over the surface. The association and dissociation phases of each pulse were 12 seconds. […] Each experiment started with a blank run, i.e., a series of pulses of running buffer alone. The concentration of the first pulse, C1, was assumed to be equal to the concentration in the vial. […]
Response levels were obtained by taking the average of 10 data points at equilibrium. […] The constant multi-concentration pulse series were evaluated with a non-linearly fitted Req versus C plot, whereby KA, KD and Rmax values were obtained directly from the software.

[3] = molecular target: HSA (Homo sapiens, UniProt P02768)
HSA, sequence (P02768 25-609 limits assumed): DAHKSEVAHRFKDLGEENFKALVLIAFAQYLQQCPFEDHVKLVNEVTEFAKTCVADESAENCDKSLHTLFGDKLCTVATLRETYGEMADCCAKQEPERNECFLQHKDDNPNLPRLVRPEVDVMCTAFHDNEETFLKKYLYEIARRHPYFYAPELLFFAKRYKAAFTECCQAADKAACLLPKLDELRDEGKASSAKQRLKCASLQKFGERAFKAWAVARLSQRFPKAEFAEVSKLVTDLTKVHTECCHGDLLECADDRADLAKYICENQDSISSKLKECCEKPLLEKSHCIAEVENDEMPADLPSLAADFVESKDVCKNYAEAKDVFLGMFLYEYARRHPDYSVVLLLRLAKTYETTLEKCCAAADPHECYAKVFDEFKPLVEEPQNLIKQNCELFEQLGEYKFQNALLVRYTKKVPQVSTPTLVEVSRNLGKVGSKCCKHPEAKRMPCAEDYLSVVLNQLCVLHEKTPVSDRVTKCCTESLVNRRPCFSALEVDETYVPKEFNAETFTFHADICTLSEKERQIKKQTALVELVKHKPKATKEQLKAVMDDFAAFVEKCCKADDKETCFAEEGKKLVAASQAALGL

Row | Kd [1] [mM] | Kd [2] [mM] | Compound | site competition on HSA, pair digitoxin and warfarin [3]
1 | 8.5 | 9 | OC[C@H]1O[C@H](O[C@H]2[C@H](O)[C@@H](O)C(O)O[C@@H]2CO)[C@H](O)[C@@H](O)[C@@H]1O (mixture of isomers) [maltose] | 
2 |  |  | C[C@H]1O[C@@H](O[C@H]2[C@@H](O)C[C@H](O[C@H]3[C@@H](O)C[C@H](O[C@H]4CC[C@@]5(C)[C@H](CC[C@@H]6[C@@H]5CC[C@]5(C)[C@@H](C7=CC(=O)OC7)CC[C@]65O)C4)O[C@@H]3C)O[C@@H]2C)C[C@H](O)[C@@H]1O [Digitoxin, digitoxin] | non-competitive binders

— patent US7642058B2, “Method and apparatus for characterization of interactions” (GE Healthcare Bio-Sciences AB, priority 2003, dated 2010)
